Assay results: ChEMBL document CHEMBL3421624, “Design and Synthesis of Antitumor Heck-Coupled Sclareol Analogues: Modulation of BH3 Family Members by SS-12 in Autophagy and Apoptotic Cell Death” (J Med Chem, 2015)
Calls of active or inactive are those of the source. No cut-off for these calls is given here.

What was measured:
[1] = test system: Mus musculus; assay: Toxicity in mouse S180 solid tumor cells implanted Swiss albino mouse assessed as mouse mortality at 22 mg/kg, ip measured on day 13; type: organism-based; parameters: dose 22 mg/kg, route intraperitoneal; details: in vivo
[2] = test system: Mus musculus; assay: Toxicity in mouse S180 ascites cells implanted Swiss albino mouse assessed as mouse mortality at 22 mg/kg, ip measured on day 13; type: organism-based; parameters: dose 22 mg/kg, route intraperitoneal; details: in vivo
[3] = test system: CCRF S-180; assay: Antitumor activity against mouse S180 ascites cells implanted in Swiss albino mouse assessed as tumor growth inhibition at 22 mg/kg, ip measured on day 12; type: functional; details: CCRF S-180, ip, 288 h, route intraperitoneal, read-out: TGI
[4] = test system: CCRF S-180; assay: Antitumor activity against mouse S180 solid tumor cells implanted in Swiss albino mouse assessed as tumor growth inhibition at 22 mg/kg, ip measured on day 13; type: functional; details: CCRF S-180, ip, 312 h, route intraperitoneal, read-out: TGI
[5] = test system: PC-3; assay: Induction of autophagy in human PC3 cells assessed as autophagosomes formation at 100 to 300 nM after 24 hrs by acridine orange staining based fluorescence microscopy; type: functional, cell-based
[6] = test system: Mus musculus; assay: Toxicity in mouse S180 ascites cells implanted Swiss albino mouse assessed as mouse mortality at 10 mg/kg, ip measured on day 13; type: organism-based; parameters: dose 10 mg/kg, route intraperitoneal; details: in vivo
[7] = test system: PC-3; assay: Induction of autophagy in human PC3 cells at 300 nM pre-treated with 5 mM autophagy inhibitor 3-MA for 1 hr before compound exposure for 24 hrs by acridine orange staining based fluorescence microscopy; type: functional, cell-based
[8] = test system: PC-3; assay: Increase in PARP-cleavage in human PC3 cells at 0.3 uM in presence of Beclin-1 siRNA after 24 hrs by immunoblotting method; type: functional, cell-based
[9] = test system: HeLa; assay: Cytotoxicity against human HeLa cells after 48 hrs by MTT assay; type: functional, cell-based
[10] = test system: Mus musculus; assay: Toxicity in mouse S180 solid tumor cells implanted Swiss albino mouse assessed as mouse mortality at 10 mg/kg, ip measured on day 13; type: organism-based; parameters: dose 10 mg/kg, route intraperitoneal; details: in vivo
[11] = test system: PC-3; assay: Induction of autophagy in human PC3 cells assessed as LC3 protein accumulation in autophagosomes after 24 hrs by fluorescence microscopy; type: functional, cell-based
[12] = test system: PC-3; assay: Induction of autophagy in human PC3 cells at 300 nM pre-treated with 20 uM apoptosis inhibitor z-VAD-fmk for 1 hr before compound exposure for 24 hrs by acridine orange staining based fluorescence microscopy; type: functional, cell-based
[13] = test system: PC-3; assay: Inhibition of Akt in human PC3 cells assessed as reduction in mTOR S2448 phosphorylation at 0.1 to 0.3 uM after 24 hrs by Western blotting method; type: cell-based
[14] = Effect on total mTOR protein levels in human PC3 cells at 0.1 to 0.3 uM after 24 hrs by Western blotting method; type: ADME, cell-based; details: pc-3, 24 h
[15] = test system: PC-3; assay: Induction of autophagy in human PC3 cells assessed as increase in punctate EGFP-LC3 pattern in autophagosomes at 100 nM to 300 nM after 24 hrs by fluorescence microscopy; type: functional, cell-based
[16] = test system: PC-3; assay: Induction of apoptosis in human PC3 cells assessed as caspase-3 cleavage at 300 nM after 24 hrs by Western blotting method; type: functional, cell-based
[17] = test system: CCRF S-180; assay: Antitumor activity against mouse S180 ascites cells implanted in Swiss albino mouse assessed as tumor growth inhibition at 5 mg/kg, ip measured on day 12; type: functional; details: CCRF S-180, ip, 288 h, route intraperitoneal, read-out: TGI
[18] = test system: Mus musculus; assay: Toxicity in mouse S180 ascites cells implanted Swiss albino mouse assessed as mouse mortality at 5 mg/kg, ip measured on day 13; type: organism-based; parameters: dose 5 mg/kg, route intraperitoneal; details: in vivo
[19] = Cytotoxicity against human PC3 cells after 48 hrs by MTT assay; type: functional, cell-based; details: PC-3, 48 h
[20] = test system: PC-3; assay: Induction of apoptosis in human PC3 cells assessed as caspase-3 cleavage at 0.1 to 0.3 uM after 24 hrs by Western blotting method; type: functional, cell-based
[21] = test system: PC-3; assay: Induction of apoptosis in human PC3 cells assessed as nuclear condensation at 100 to 300 nM after 24 hrs by DAPI staining assay; type: functional, cell-based
[22] = test system: PC-3; assay: Induction of autophagy in human PC3 cells assessed as increase LC3 intracellular localization at 100 nM to 300 nM after 24 hrs by immunocytochemistry; type: functional, cell-based
[23] = test system: PC-3; assay: Induction of apoptosis in human PC3 cells over-expressing Bcl-2 at 300 nM pre-treated with 20 uM apoptosis inhibitor z-VAD-fmk for 1 hr before compound exposure for 24 hrs by DAPI staining method; type: functional, cell-based
[24] = test system: PC-3; assay: Induction of autophagy in human PC3 cells over-expressing Bcl-2 at 300 nM pre-treated with 5 mM autophagy inhibitor 3-MA for 1 hr before compound exposure for 24 hrs by acridine orange staining based fluorescence microscopy; type: functional, cell-based
[25] = test system: PC-3; assay: Induction of autophagy in human PC3 cells assessed as increase in conversion of LC3-I to LC3-II at 0.1 to 0.3 uM after 24 hrs by Western blotting method; type: functional, cell-based
[26] = test system: CCRF S-180; assay: Antitumor activity against mouse S180 ascites cells implanted in Swiss albino mouse assessed as tumor growth inhibition at 10 mg/kg, ip measured on day 12; type: functional; details: CCRF S-180, ip, 288 h, route intraperitoneal, read-out: TGI
[27] = test system: PC-3; assay: Induction of autophagy in human PC3 cells assessed as increase in Beclin-1 protein levels at 0.1 to 0.3 uM after 24 hrs by Western blotting method; type: functional, cell-based
[28] = test system: PC-3; assay: Induction of autophagy in human PC3 cells over-expressing Bcl-2 at 300 nM pre-treated with 20 uM apoptosis inhibitor z-VAD-fmk for 1 hr before compound exposure for 24 hrs by acridine orange staining based fluorescence microscopy; type: functional, cell-based
[29] = test system: A549; assay: Cytotoxicity against human A549 cells after 48 hrs by MTT assay; type: functional, cell-based; details: A549, 48 h
[30] = test system: PC-3; assay: Induction of apoptosis in human PC3 cells at 300 nM pre-treated with 20 uM apoptosis inhibitor z-VAD-fmk for 1 hr before compound exposure for 24 hrs by DAPI staining method; type: functional, cell-based
[31] = test system: PC-3; assay: Increase in autophagy in human PC3 cells at 300 nM pre-treated with 20 uM apoptosis inhibitor z-VAD-fmk for 1 hr before compound exposure for 24 hrs by acridine orange staining based fluorescence microscopy; type: functional, cell-based
[32] = test system: CCRF S-180; assay: Antitumor activity against mouse S180 solid tumor cells implanted in Swiss albino mouse assessed as tumor growth inhibition at 10 mg/kg, ip measured on day 13; type: functional; details: CCRF S-180, ip, 312 h, route intraperitoneal, read-out: TGI
[33] = test system: PC-3; assay: Induction of autophagy in human PC3 cells assessed as acidic vesicular organelles formation at 100 to 300 nM after 24 hrs by acridine orange staining based fluorescence microscopy; type: functional, cell-based
[34] = test system: PC-3; assay: Induction of autophagy in human PC3 cells at 100 to 300 nM after 24 hrs by MDC staining based fluorescence microscopy; type: functional, cell-based
[35] = test system: CCRF S-180; assay: Antitumor activity against mouse S180 solid tumor cells implanted in Swiss albino mouse assessed as tumor growth inhibition at 5 mg/kg, ip measured on day 13; type: functional; details: CCRF S-180, ip, 312 h, route intraperitoneal, read-out: TGI
[36] = Reduction in Bcl-2 protein expression in human PC3 cells at 0.1 to 0.3 uM after 24 hrs by Western blotting method; type: functional, cell-based; details: PC-3
[37] = test system: PC-3; assay: Inhibition of Akt S473 phosphorylation in human PC3 cells at 0.1 to 0.3 uM after 24 hrs by Western blotting method; type: cell-based
[38] = test system: PC-3; assay: Induction of autophagy in human PC3 cells over-expressing DS-Red-Beclin-1 at 300 nM pre-treated with 20 uM apoptosis inhibitor z-VAD-fmk for 1 hr before compound exposure for 24 hrs by acridine orange staining based fluorescence microscopy; type: functional, cell-based
[39] = test system: PC-3; assay: Induction of apoptosis in human PC3 cells assessed as membrane blebbing at 100 to 300 nM after 24 hrs by DAPI staining assay; type: functional, cell-based
[40] = test system: PC-3; assay: Induction of apoptosis in human PC3 cells at 300 nM pre-treated with 5 mM autophagy inhibitor 3-MA for 1 hr before compound exposure for 24 hrs by DAPI staining method; type: functional, cell-based
[41] = test system: PC-3; assay: Induction of autophagy in human PC3 cells assessed as reduction in SQSTM1/P62 protein levels at 0.1 to 0.3 uM after 24 hrs by Western blotting method; type: functional, cell-based
[42] = test system: PC-3; assay: Induction of autophagy in human PC3 cells at 100 to 300 nM after 24 hrs by acridine orange staining based fluorescence microscopy; type: functional
[43] = test system: Mus musculus; assay: Toxicity in mouse S180 solid tumor cells implanted Swiss albino mouse assessed as mouse mortality at 5 mg/kg, ip measured on day 13; type: organism-based; parameters: dose 5 mg/kg, route intraperitoneal; details: in vivo
[44] = Effect on total Akt protein levels in human PC3 cells at 0.1 to 0.3 uM after 24 hrs by Western blotting method; type: ADME, cell-based; details: pc-3, 24 h
[45] = test system: PC-3; assay: Induction of apoptosis in human PC3 cells assessed as increase in Annexin-V positive cells at 0.1 to 0.3 uM after 24 hrs; type: functional, cell-based

O=c1[nH]cc(F)c(=O)[nH]1 [FLUOROURACIL]
Activity [1]: Non-toxic | Activity [2]: Non-toxic | inhibition in vivo at 22 mg/kg [3]: 96.9% | inhibition in vivo at 22 mg/kg [4]: 52.5%

CC1(C)CCC[C@]2(C)[C@@H](CC[C@@](C)(O)/C=C/c3ccc(F)cc3)[C@](C)(O)CC[C@@H]12
Activity [5]: Active | Activity [6]: Non-toxic | Activity [7]: inactive | Activity [8]: inactive | IC50 [9]: 3.46 µM | Activity [10]: Non-toxic | Activity [11]: Active | Activity [12]: inactive | inhibition [13]: Active | Activity [14]: Non-toxic | Activity [15]: Active | Activity [16]: Active | inhibition in vivo at 5 mg/kg [17]: 64.7% | Activity [18]: Non-toxic | IC50 [19]: 0.082 µM | Activity [20]: Active | Activity [21]: Active | Activity [22]: Active | Activity [23]: inactive | Activity [24]: Active | Activity [25]: Dose-dependent effect | inhibition in vivo at 10 mg/kg [26]: 74.9% | Activity [27]: Dose-dependent effect | Activity [28]: inactive | IC50 [29]: 3.1 µM | Activity [30]: inactive | Activity [31]: Active | inhibition in vivo at 10 mg/kg [32]: 39.8% | Activity [33]: Active | Activity [34]: Active | inhibition in vivo at 5 mg/kg [35]: 32.5% | Activity [36]: Dose-dependent effect | inhibition [37]: Active | Activity [38]: Active | Activity [39]: Active | Activity [40]: inactive | Activity [41]: Dose-dependent effect | Activity [42]: Active | Activity [43]: Non-toxic | Activity [44]: Non-toxic | Activity [45]: Active
